In patent publication US20220306691A1, “THERAPEUTIC PEPTIDES” (COHBAR, INC., priority 2019, published 2022):
Where a SMILES comes first, the peptide text is derived from it. Where no end group is shown, it is not given here. [ ]: non-standard residue; d: D form.

Tests used:
MDA-MB-231 cells [1] = assay: Caspase 3/7 activity (Caspase-Glo 3/7) in MDA-MB-231 cells; assay type: cell-based, human; settings: test peptides at 10 μM, 18 hours, relative to DMSO control
Description: The effect of the peptides on cell death/survival can be assessed using a caspase-3 assay. Peptides were dissolved with DMSO at 10 mM stock. […] Staurosporine (Selleckchem) was dissolved with DMSO at 1 mM stock. Caspase-Glo 3/7 Assay Reagent was purchased from Promega (Madison, Wis.). MDA-MB-231 human breast cancer cell line was purchased from American Type Culture Collection (Manassas, Va.). MDA-MB-231 cells were grown in DMEM Medium supplemented with 10% FBS. 100 μg/ml penicillin and 100 μg/ml streptomycin were added to the culture medium. […] 25 μl of Caspase-Glo 3/7 Assay Reagent was added to each well and incubated at 37° C., 5% CO2 for 1 hour. Luminescence for each sample well on the plate was measured by Envision 2104 Multilabel Reader (PerkinElmer, Santa Clara, Calif.). Activity was calculated relative to DMSO control.

3T3-L1 adipocytes = assay: Free fatty acid levels in cultured 3T3-L1 adipocytes stimulated with isoproterenol; settings: for Free Fatty Acid Levels, Percent of Control Value (Percent Isoproterenol Control): test peptides 25 μM, 20-22 hours then 3 hours with isoproterenol (1 nM)
Description: Mouse 3T3-L1 adipocytes were seeded at 3,000 cells per well in 96-well plates in Pre-adipocyte Medium (Zen-Bio, Durham, N.C.) and grown to confluence at 37° C. in a humidified atmosphere of 5% CO2/95% air. Two days after confluence, cells were placed in Adipocyte Differentiation Medium (Zen-Bio, Durham, N.C.) and cultured for three additional days at 37° C. in a humidified atmosphere of 5% CO2/95% air. The culture media was then replaced with Adipocyte Maintenance Medium (Zen-Bio) and the cells maintained for an additional 9-12 days at 37° C. in a humidified atmosphere of 5% CO2/95% air with partial medium replacement every other day. Following 12-15 days' differentiation, test peptides were added to a final concentration of 25 μM and incubated for 20-22 hours in Adipocyte Maintenance Medium. After 20-22 hours, isoproterenol (1 nM) was added to all wells except untreated controls and test peptides were replenished. Cells were incubated for a further 3 hours in Assay Buffer (Zen-Bio). Free fatty acid concentrations in the media were determined using a Free Fatty Acid Assay Kit (Zen-Bio) according to the manufacturer's instructions using a plate reader (540 nm). Absorbance values were corrected for untreated background and expressed relative to isoproterenol treated cells. Treatment with isoproterenol (1 nM) alone was used as the free fatty acid level stimulatory control. The relative standard deviation of the isoproterenol control was <10%.

MCF-7 cells = assay: Cell viability, MTS assay in MCF-7 cells; settings: for MTS Assay (cell viability), Percent of Control Activity: human, 72 hours, 10 µM
Description: Peptides and reference compound staurosporine (Selleckchem) were dissolved with DMSO at 10 mM stock. CellTiter 96® AQueous One Solution Reagent (MTS assay reagent) was purchased from Promega (Madison, Wis.). MCF-7 human breast cancer cell line was purchased from American Type Culture Collection (Manassas, Va.). MCF-7 cells were grown in EMEM Medium supplemented with 10% FBS and 0.01 mg/ml human recombinant insulin. 100 μg/ml penicillin and 100 μg/ml streptomycin were added to the culture medium. […] 5 μl of CellTiter 96® AQueous One Solution Reagent (MTS assay reagent) was added to each well and incubated at 37° C., 5% CO2 for 5 hours. Absorbance at 492 nm was recorded by Envision 2104 Multilabel Reader. Treatment with DMSO alone was used as the cell viability activity control.

MDA-MB-231 cells [2] = assay: Cell viability, MTS assay in MDA-MB-231 cells; assay type: cell-based, human; settings: for MTS Assay (cell viability), Percent of Control Activity: human, 72 hours
Description: Test compounds and reference compound staurosporine (Selleckchem) were all dissolved with DMSO at 10 mM stock. […] Activity was calculated relative to DMSO control. […] Cell viability was 3% of the DMSO control value for Staurosporine (10 uM).

Molecule | Free Fatty Acid Levels, Percent of Control Value (Percent Isoproterenol Control) (3T3-L1 adipocytes) [%] | further results
CC[C@H](C)[C@H](NC(=O)[C@H](CCC(=O)O)NC(=O)[C@H](CS)NC(=O)[C@H](CCCNC(=N)N)NC(=O)[C@H](Cc1ccccc1)NC(=O)[C@H](CS)NC(=O)[C@H](C)NC(=O)[C@H](CC(C)C)NC(=O)[C@@H](N)CCSC)C(=O)N[C@H](C(=O)N[C@H](C(=O)NCC(=O)N[C@@H](CO)C(=O)N[C@@H](Cc1c[nH]c2ccccc12)C(=O)N[C@@H](CS)C(=O)N[C@@H](Cc1c[nH]c2ccccc12)C(=O)N[C@@H](CO)C(=O)N[C@@H](CC(C)C)C(=O)N[C@@H](CO)C(=O)O)C(C)C)C(C)C [compound 2] (H-MLACFRCEIVVGSWCWSLS-OH; N-terminus and C-terminus assumed) | 114 | Caspase 3/7 Activity, Percent of Control Activity (MDA-MB-231 cells [1]): 95%; MTS Assay (cell viability), Percent of Control Activity (MCF-7 cells): 55%; MTS Assay (cell viability), Percent of Control Activity (MDA-MB-231 cells [2]): 78%
15 (WVSEPHCVVVN) [compound 15] | 97 | 
4 (ACFRCEIVVGSWCWSLS; not fully specified; cysteine pairing not given here) [compound 4] | 116 | 
MVITFIWSCTKIFGA [compound 22] | 133 | Caspase 3/7 Activity, Percent of Control Activity (MDA-MB-231 cells [1]): 69%; MTS Assay (cell viability), Percent of Control Activity (MCF-7 cells): 58%; MTS Assay (cell viability), Percent of Control Activity (MDA-MB-231 cells [2]): 81%
14 (WWVSEPHCVVVN) [compound 14] | 102 | 
8 (NIVVGKRLIIKVDATMDFT; not fully specified) [compound 8] | 81 | 
24 (VITFIWSCTKIFG) [compound 24] | 90 | 
9 (NIVVGKRLIIKVD[dA]TMDFT) [compound 9] | 103 | 
MVHHRILTVIYKLRPKH [compound 17] | 88 | Caspase 3/7 Activity, Percent of Control Activity (MDA-MB-231 cells [1]): 74%; MTS Assay (cell viability), Percent of Control Activity (MCF-7 cells): 60%; MTS Assay (cell viability), Percent of Control Activity (MDA-MB-231 cells [2]): 82%
MNIVVGKRLIIKVDATMDFT [compound 7] | 94 | Caspase 3/7 Activity, Percent of Control Activity (MDA-MB-231 cells [1]): 73%; MTS Assay (cell viability), Percent of Control Activity (MCF-7 cells): 59%; MTS Assay (cell viability), Percent of Control Activity (MDA-MB-231 cells [2]): 75%
CN[C@@H]1C[C@H]2O[C@@](C)([C@@H]1OC)n1c3ccccc3c3c4c(c5c6ccccc6n2c5c31)C(=O)NC4 [staurosporine, reference compound] |  | Cell viability, % of the background corrected DMSO control value (MCF-7 cells; MCF-7 cells, staurosporine 10 uM, positive control): < 5%; Cell viability, % of the DMSO control value (MDA-MB-231 cells [2]; MDA-MB-231 cells, Staurosporine 10 uM, positive control): 3%
20 (HRILTVIYKLRP[dA]H) [compound 20] | 27 | 
5 ([dA]CFRCEIVVGSWCWSLS; cysteine pairing not given here) [compound 5] | 113 | 
10 (NIVV[dA]KRLIIKVDATMDFT) [compound 10] | 91 | 
3 (LACFRCEIVVGSWCWSLS) [compound 3] | 109 | 
MWWVSEPHCVVVNM [compound 12] | 112 | Caspase 3/7 Activity, Percent of Control Activity (MDA-MB-231 cells [1]): 56%; MTS Assay (cell viability), Percent of Control Activity (MCF-7 cells): 63%; MTS Assay (cell viability), Percent of Control Activity (MDA-MB-231 cells [2]): 78%
Insulin [reference compound] |  | Free fatty acid levels, % of the isoproterenol control value (3T3-L1 adipocytes; insulin 100 nM, positive control): < 5%
13 (WWVSEPHCVVVNM) [compound 13] | 109 | 
19 (HHRILTVIYKLRPKH) [compound 19] | 78 | 
25 (VITFIWSCTKIF) [compound 25] | 115 | 
18 (VHHRILTVIYKLRPKH) [compound 18] | 75 | 
23 (VITFIWSCTKIFGA) [compound 23] | 128 | 
